# Patent US4389412A, “Substituted cyclopropanecarboxylic acid esters and pesticidal compositions containing the same as active ingredient” (priority 1979, dated 1983)
# Entries after “also recorded” stand apart in the source; their conditions may differ.
# Experiments:
# pests = assay: Pesticidal effectiveness, overall; conditions: in vivo
# Source text: The pesticidal activity of the compounds according to this invention against green rice leafhoppers (Nephotettix cincticeps Uhler), rice stem borers (Chilo suppressalis Walker), tobacco cutworms (Prodenia litura […]) and houseflies (Musca domestica), as examples of the pests against which the same compounds are considered effective, the acute toxicity data on the same compounds as determined in rat by the oral route and the median tolerance limit (TLm) data on the same compounds as determined in killifish (Orizias latipes) and guppies (Lebistes reticulatus) are shown in Table 1 alongside the corresponding values for various control compounds. The pesticidal effects were determined by the procedures set forth in Test Examples 1 through 4, while the acute toxicity to rat was determined by the procedure set forth in Test Example 9 and the toxicity to fish was determined by the procedures set forth in Test Examples 6 and 7, all those Examples appearing hereinafter.
# carp and water flea = assay: Fish toxicity ranking according to Japanese regulations; parameters: species or system Cyprinus carpio L; Daphnia pulex; conditions: from TLm for carp and water flea
# Procedure: The above ranking with symbols A, B and C were determined according to Japanese regulations relative to application of agricultural chemicals, and these symbols are defined as follows: […]
# A: TLm (48 hrs.) value >10 ppm for carp and TLm (3 hrs.) value >0.5 ppm for water flea, wherein toxicity to fishes is not observed by usual application.
# B: TLm (48 hrs.) value 10-0.5 ppm for carp; or TLm (48 hrs.) value >10 ppm for carp and TLm (3 hrs.) value <0.5 ppm for water flea, wherein appreciable toxicity to fishes is not observed by usual application but may be observed when applied to wide area at one time.
# C: TLm (48 hrs.) value <0.5 ppm for carp, wherein toxicity to fishes is so strongly observed by usual application that both the application method and application area are strictly restricted.
# [1] = test system: water-fleas (Daphnia pulex); assay: Toxicity test with water-fleas; assay type: in vivo; conditions: 25±1° C.
# Procedure: Toxicity test with water-fleas (Daphnia pulex)
# An acetone solution of one of the test compounds as mentioned in Table 10 and Tween-20 (the same surfactant as mentioned hereinbefore) was prepared. To 100 ml of water in a high-walled dish (9 cm in diameter, 7 cm deep) was added the above acetone solution. The mixture was stirred thoroughly to prepare an aqueous solution containing the test compound in a predetermined concentration. This was used as a test water. Twenty water-fleas (Daphnia pulex) were released into each test water which was maintained at 25±1° C. After 6 hours, the water-fleas were examined for deaths. The TLm (median tolerance limit, ppm) was determined.
# carp (Cyprinus carpio L) = assay: Fish toxicity test with carp; assay type: in vivo; conditions: 48 hrs., 21±1° C.; 2880 min
# Procedure: (§1) Fish toxicity test with carp (Cyprinus carpio L)
# (§2) An acetone solution of one of the test compounds as mentioned in Table 10 and Tween-20 (the same surfactant as mentioned hereinbefore) was prepared. To 50 liters of water (30 cm deep) in a glass tank was added the above acetone solution. The mixture was stirred thoroughly to prepare an aqueous solution containing the test compound in a predetermined concentration. This was used as a test water. Five carps (Cyprinus carpio L) with a body weight of about 6 g and a body length of about 6 cm were released into each test water which was maintained at 21±1° C. After 48 hours, the test fish was examined for death. The TLm (median tolerance limit, ppm) was determined. The test water was moderately aerated.
# fish = assay: Fish toxicity safety factor (TLm divided by maximum concentration in cover water); parameters: species or system carp; conditions: TLm / maximum concentration in cover water at LC50 application (100 l per 10 ares, 5 cm depth)
# Procedure: (§3) To further confirm the low toxicity to fish and high pesticidal activity of Compounds (1) and (2) according to this invention as evidenced by the fish toxicity tests with carps and the above tests, fish toxicity safety factors were calculated from the fish toxicity and pesticidal test data. These fish toxicity safety factors are indicators of safety to fish inhabiting a paddy field to which Compounds (1) and (2) may be actually applied for pest control purposes.
# (§4) It is first assumed that such a pesticidal solution would normally be applied at the rate of 100 l per 10 ares of paddy field. It is also assumed that a solution (100 l) corresponding to the LC50 of the compounds would be applied to 10 ares of a paddy field carrying a cover water with a depth of 5 cm above ground surface and that all the solution would then find its way into the cover water. The expected maximum concentration of the compound in the cover water is then calculated. The fish toxicity safety factor of a pesticidal compound is defined as the value obtained by dividing the TLm (ppm) of the particular compound by the maximum concentration of the compound in cover water. The meaning of the value of the fish toxicity safety factor being one (1) is that the maximum concentration of the particular compound in cover water corresponds to the TLm of said compound. It is understood that when the pesticidal compound having a fish toxicity safety factor value of less than one (1) is applied to a paddy field, it has a risk of destroying the fish inhabiting there, and that the higher the safety factor value, the higher is the safety of the compound to fish.
# (§5) This fish toxicity safety factor will now be explained in further detailed by taking the trans-isomer of Compound (2) of this invention as an example.
# (§6) On the other hand, the toxicity to fish of this compound is TLm >10 ppm. Therefore, by dividing the TLm (i.e. >10 ppm) by the above cover water maximum concentration (i.e. 0.36 ppm), we obtain a fish toxicity safety factor of >28. Thus, the concentration of the trans-isomerof Compound (2) which kills 50% of pests corresponds to less than 1/28 of the concentration of the same isomer which kills 50% of fish. In other words, this means that the trans-isomer of Compound (2) is extremely safe to fish.
# [2] = test system: brown planthoppers (Nilaparvata lugens Stal); assay: Utility Example-1: LC50 on adult brown planthoppers on dipped rice plants; assay type: in vivo; conditions: 25° C.; for Pesticidal activity LC50: 24 hours, 1440 min
# Procedure: A 1% emulsifiable concentrate of each test compound as prepared by the procedure described in Formulation Example 2 was diluted with water to prepare a test solution of predetermined concentration.
# Rice plants, 4 weeks after sowing (cultivated in a pot 6 cm in diameter, 7 seedlings) were dipped in the above solution and after allowing them to dry in the air, the pot was covered with a wire-mesh cage. Then, 30 adult brown planthoppers (Nilaparvata lugens Stal) were released into the cage and the pot was kept in a constant-temperature chamber at 25° C.
# [3] = test system: green rice leafhoppers (Nephotettix cincticeps Uhler); assay: Mortality test with green rice leafhoppers by topical application method
# Procedure: Mortality test with green rice leafhoppers (Nephotettix cincticeps Uhler) by topical application method
# Then, the insects were kept at 25° C. with access to rice plant seedlings. The insects were used in groups of 15 individuals each.
# [4] = test system: guppies (Lebistes reticulatus); assay: Fish toxicity test with guppies; assay type: in vivo; conditions: Table 1; 48 hrs.
# Procedure: (§7) Fish toxicity test with guppies (Lebistes reticulatus)
# (§8) To 5 liters of water were added 250 mg of Sorpol SM-200 (trademark, Toho Chemical Co., Ltd.) as a surfactant and 2.5 ml of an acetone solution containing one of the test compounds in a predetermined concentration. The mixture was stirred thoroughly to prepare a test water. Ten female guppies (Lebistes reticulatus) of from 3 to 4 months of age were released into the test water which was maintained at 20° C. and the TLm (median tolerance limit, ppm) was determined.
# [5] = Fish toxicity test with guppies; assay type: in vivo, Lebistes reticulatus; conditions: guppy, water, guppies, 20° C., read-out: TLm (48 hrs.)
# Procedure: as §7, §8
# [6] = Acute toxicity test in rat by the oral route; assay type: in vivo; conditions: in vivo, male rat, in olive oil, after 7 days
# Source text: Acute toxicity test in rat by the oral route
# [7] = test system: rice stem borers (Chilo suppressalis Walker); assay: Mortality test with rice stem borers by topical application method; assay type: in vivo; conditions: 24 h
# Procedure: Mortality test with rice stem borers (Chilo suppressalis Walker) by topical application method
# Using a microsyringe, 0.5 μl of the above solution was applied to the thoracic abdominal region of each final-instar larva of rice stem borer (Chilo suppressalis Walker). […] The test larvae were used in groups of 20 individuals each.
# [8] = test system: houseflies (Musca domestica); assay: Mortality test with houseflies by topical application method; conditions: 24 h
# [9] = Fish toxicity test with carp; assay type: in vivo, Cyprinus carpio L; conditions: carp, water, 48 hrs., 21±1° C.; read-out: TLm, Carp (48 hrs.)
# Procedure: as §1, §2
# [10] = test system: tobacco cutworms (Prodenia litura Fabricius); assay: Mortality test with tobacco cutworms by topical application method; assay type: in vivo; conditions: 24 h, read-out: Pesticidal effect, tobacco cutworm
# Procedure: Mortality test with tobacco cutworms (Prodenia litura Fabricius) by topical application method
# Using a microsyringe, 0.5 μl of the above solution was dripped onto the thoracic adbominal region of each of 3-instar tobacco cutworm (Prodenia litura Fabricius) larvae. […] The test larvae were used in groups of 20 individuals each.
# [11] = Fish toxicity safety factor (TLm divided by maximum concentration in cover water); parameters: species or system carp; conditions: in vivo, TLm / maximum concentration in cover water at LC50 application (100 l per 10 ares, 5 cm depth)
# Procedure: as §3, §4, §5, §6
# [12] = Fish toxicity test with killifish; assay type: in vivo, Orizias latipes; conditions: water, killifish, 25±1° C., read-out: TLm (48 hrs.)
# Procedure: Fish toxicity test with killifish (Orizias latipes)
# An acetone solution of one of the test compounds as mentioned in Table 8 was prepared by adding said test compound to 15 ml of acetone. To 10 liters of water was added a predetermined amount of the above acetone solution and the mixture was stirred thoroughly to prepare an aqueous solution containing the test compound in a predetermined concentration. This was used as a test water. After the each test water was moderately aerated, ten killifishes (Orizias latipes) with a body weight of about 0.25 g and a body length of about 2.5 cm were released into said each test water which was maintained at 25±1° C. After 48 hours, the test fish was examined for death. The TLm (median tolerance limit, ppm) was determined.
# [13] = Nephotettix cincticeps, in Oryza sativa, 24 h
smiles,measurement,setting,value
"CC1(C)C(C=C(Cl)Cl)C1C(=O)OCc1cccc(Oc2ccc(Cl)cc2)c1 (centres unmarked) [Compound (1), 3-(4-chlorophenoxy)benzyl 2,2-dimethyl-3-(2,2-dichlorovinyl)cyclopropanecarboxylate]",pesticidal effectiveness in words,pests,"excellent pesticidal activity against both the sensitive and resistant strains of pests; also recorded: at least equivalent or superior in pesticidal effectiveness to control compounds (A), (B), (C), (D), (E), (F), (G) and (H)"
C#CC(OC(=O)C1C(C=C(Cl)Cl)C1(C)C)c1cccc(Oc2ccc(Cl)cc2)c1 (stereo not drawn) [Compound (2) cis-/trans- = 10:90],Ranking,carp and water flea,"B (TLm (48 hrs.) value 10-0.5 ppm for carp; or TLm (48 hrs.) value >10 ppm for carp and TLm (3 hrs.) value <0.5 ppm for water flea, wherein appreciable toxicity to fishes is not observed by usual application but may be observed when applied to wide area at one time.)"
same,"TLm, Water-flea (6 hrs.)",[1],> 40 ppm
same,"TLm, Carp (48 hrs.)",carp (Cyprinus carpio L),7.2 ppm
same,Fish toxicity safety factor,fish,20
same,Pesticidal activity LC50,[2],180 ppm
C#CC(OC(=O)C1C(C=C(Cl)Cl)C1(C)C)c1cccc(Oc2ccc(Cl)cc2)c1 (stereo not drawn) [Compound (2) cis-/trans- = 30:70],Ranking,carp and water flea,"B (TLm (48 hrs.) value 10-0.5 ppm for carp; or TLm (48 hrs.) value >10 ppm for carp and TLm (3 hrs.) value <0.5 ppm for water flea, wherein appreciable toxicity to fishes is not observed by usual application but may be observed when applied to wide area at one time.)"
same,"TLm, Water-flea (6 hrs.)",[1],> 40 ppm
same,"TLm, Carp (48 hrs.)",carp (Cyprinus carpio L),4.9 ppm
same,LD50 (median lethal dose),"[3]; green rice leafhoppers, 1440 min",0.40 µg/g
same,Fish toxicity safety factor,fish,13.6
same,Pesticidal activity LC50,[2],180 ppm
"C#CC(OC(=O)C1C(C=C(Cl)Cl)C1(C)C)c1cccc(Oc2ccc(Cl)cc2)c1 (stereo not drawn) [Compound (2), 3-(4-chlorophenoxy)-α-ethynylbenzyl 2,2-dimethyl-3-(2,2-dichlorovinyl)cyclopropanecarboxylate]",pesticidal effectiveness in words,pests,"excellent pesticidal activity against both the sensitive and resistant strains of pests; also recorded: at least equivalent or superior in pesticidal effectiveness to control compounds (A), (B), (C), (D), (E), (F), (G) and (H)"
"CC1(C)C(C=C(Cl)Cl)C1C(=O)OC(C#N)c1cccc(Oc2ccccc2)c1 (centres unmarked) [Compound (C), Cypermethrin]","Toxicity to fish TLm, guppy",[4],< 0.5 ppm
same,LC50 at 48 h,[5],< 0.5 µg/mL
same,Ranking,carp and water flea,"C (TLm (48 hrs.) value <0.5 ppm for carp, wherein toxicity to fishes is so strongly observed by usual application that both the application method and application area are strictly restricted.)"
same,LD50 at 168 h,[6],310 mg/kg
same,mortality at 1 µg/larva,[7],95%
same,mortality at 10 µg/larva,[7],100%
same,mortality at 0.001 mg,"[7]; read-out: Pesticidal effect, rice stem borer",95%
same,mortality at 0.5 µg/female,[8],100%
same,mortality at 1 µg/female,[8],100%
same,mortality at 0.001 mg,"[8]; read-out: Pesticidal effect, housefly",100%
same,LC50 at 48 h,[9],0.0045 µg/mL
same,mortality at 0.01 µg/female,[3]; [13],100%
same,mortality at 0.1 µg/female,[3]; [13],100%
same,mortality at 1 µg/female,[3]; [13],100%
same,mortality at 10 ng,"[3]; Nephotettix cincticeps, in Oryza sativa, 24 h, read-out: Pesticidal effect, green rice leafhopper",100%
same,mortality at 0.0001 mg,[10],100%
same,selectivity ratio,[11],0.01
same,LC50 at 48 h,[12],0.026 µg/mL
same,LC50,"[2]; Nilaparvata lugens, 24 h, read-out: Pesticidal activity LC50",210 µg/mL
